Converted amounts (≈) assume the structure as drawn.
What was measured:
[1] = system: MDA-MB-231 cells; assay: cell invasion assay through Matrigel in transwell chambers; assay type: cell-based, human; conditions: subtoxic concentrations, 24 hours
Description: Cell migration is a necessary condition for the metastasis of solid tumors. A major determinant of the metastatic potential of a cancer cell is its ability to invade through extracellular matrix barriers. Therefore, compounds 90, 92 and 94 were tested for their activities using a cell invasion assay.
Compounds 90, 92, and 94 were analyzed for their ability to inhibit the invasion of cells through Matrigel in a cell invasion assay. The assay was performed in transwell chambers according to the manufacturer's instructions (BD Biosciences). The polycarbonate membranes (8 μm pore size) of the upper chambers were coated with Matrigel (25 μg). Growth medium containing the tested compound or DMSO alone was added to the lower chambers ([…] per well in 24-well BD Falcon TC companion plates). […] After removing noninvaded cells from the upper surface of the membrane with a cotton swab, the invaded cells on the lower surface were fixed with MeOH, stained with crystal violet solution, rinsed with water, air-dried, and then counted by using an inverted microscope. In parallel experiments, cell viability, determined using the trypan blue dye exclusion assay at various concentrations of the tested compounds, was evaluated under the conditions of the cell invasion assay.

[2] = system: MDA-MB-231 human breast cancer cells; assay: wound closure assay (cell migration); assay type: cell-based; conditions: for effect on wound closure or cytotoxicity in the screen: 24 hours after wounding
Description: In the wound closure assay, MDA-MB-231 cells (American Type Culture Collection number: HTB-26) were cultured in 75 cm^2 tissue culture flasks with growth medium (DMEM containing 10% fetal bovine serum) at 37° C. under 5% CO2 in a humidified tissue culture incubator. The cells were grown to 80% confluence and then treated with trypsin, collected, and replated in 96-well tissue culture plates for initial screening. Once confluent, the cell cultures were treated with compounds at various concentrations or with DMSO carrier solvent alone with fresh growth medium. In all cases, the final DMSO concentration was 0.05%. After 30 minutes, the cell cultures were wounded with a sterile micropipette tip, and the wound closure experiments were performed essentially as described previously.
Cell monolayers in 24-well tissue culture plates were treated with different concentrations of each compound 30 minutes before wounding and then wounded, as described above.
Digital images of the wounds were captured immediately after wounding and at 3 h, 6 h, 9 h, 12 h, and 24 hours post-wounding. The open wound areas, as a function of time after wounding, were determined with NIH Image J software to establish the mean percent wound closure over time for each treatment and parallel controls, as previously described. The mean percent wound closure values at 9 hours post-wounding for all concentrations up to the maximal subtoxic concentration were subjected to nonlinear regression to calculate IC50 values and 95% confidence intervals for inhibition of wound closure.
The Minimum Inhibitory Concentration (MIC) column of Table 1 represents the lowest concentration tested at which there was statistically significant inhibitory activity in the wound closure assay as determined by unpaired, two-tailed Student's t-tests (P<0.05).
Half-maximal inhibitory concentration (IC50) values shown in Table 1 were calculated for inhibition of wound closure at 9 hours post-wounding from concentration—response profiles for a range of subtoxic concentrations (n=7−9 wounds from three independent experiments).

[3] = system: MDA-MB-231 human breast cancer cells; assay: trypan blue dye exclusion assay at the end of wound closure experiments; assay type: cell-based; conditions: lowest concentration tested with statistically significant cell death by the end of wound closure experiments
Description: Compounds were first screened at 50 μm and evaluated for their antimigratory activity and cytotoxicity. This was accomplished by scoring wounds as opened or closed as a function of time following wounding to determine the time to closure. Cell viability was determined by the trypan blue dye exclusion assay conducted at the end of each experiment, with the ratio of dye-non-excluding (dead) to dye-excluding (live) cells compared with the control, described in greater detail in Example 7.
Minimum lethal concentration (MLC) represents the lowest concentration tested at which there was statistically significant cell death, measured using the trypan blue dye exclusion assay, by the end of wound closure experiments. The minimum lethal concentration (MLC) for compound 94 under the conditions of the cell invasion assay was 50 μm. In the cell invasion assay, cells were at a lower density than in the wound closure assay, and compounds were added at the same time as the cells, rather than after attachment and growth.

[4] = system: MDA-MB-231 cells; assay: tetrazolium salt-based cell proliferation and viability assay (CCK-8); design: species or system human; conditions: 48 hours
Description: Compounds 90, 92 and 94 were also evaluated in a tetrazolium salt-based cell proliferation and viability assay.
The cell proliferation and cell viability assay was conducted according to the manufacturer's instructions (CCK-8; Dojindo Molecular Technologies). MDA-MB-231 cells were plated in 96-well tissue culture plates ([…] per well of a 4×10^4 cells per mL suspension in growth medium) and incubated for 24 hours at 37° C. under 5% CO2. The cells were then treated with the tested compounds at various concentrations or with DMSO alone. In all cases, the final DMSO concentration was 0.05%. At the same time, other cells from parallel plates were analyzed using the CCK-8 assay to establish the cell density at the start of the experiment. After 48 hours of incubation, the cell numbers for the experimental samples were determined and compared with the initial cell numbers.

[5] = system: cell migration; conditions: natural product comparator; read-out: IC50 (inhibition of cell migration); cited from earlier work

Compound	activity against cell invasion [1]	effect on wound closure or cytotoxicity in the screen ([2]; 2 μm)	effect on wound closure or cytotoxicity in the screen ([2]; 10 μm)	effect on wound closure or cytotoxicity in the screen ([2]; 50 μm)	IC50 ([2]; Homo sapiens, MDA-MB-231, 9 hours post-wounding, subtoxic concentrations, n=7-9 wounds from three independent experiments, read-out: IC50 (inhibition of wound closure)) [µM]	MIC (minimum inhibitory concentration, wound closure) ([2]; lowest concentration tested with statistically significant inhibitory activity (P<0.05)) [µM]	antimigratory activity in the wound closure assay ([2]; subtoxic concentrations)	MLC (minimum lethal concentration) [3] [µM]	inhibition of cell growth ([4]; concentrations that inhibit migration and invasion)	cytotoxicity ([4]; higher concentrations)	IC50 [5] [µM]
CCOc1cc2c(c3c1C(c1ccccc1)N(S(=O)(=O)c1ccc(C)cc1)C3)C(=O)C=CC2=O (centres unmarked) [Compound 92]	inhibit cell migration and invasion at subtoxic concentrations	inactive	inhibit wound closure or were cytotoxic	inhibit wound closure or were cytotoxic	14.8	5 (≈ 2.37 µg/mL)	exhibited subtoxic antimigratory activity	50 (≈ 23.7 µg/mL)	did not inhibit cell growth	become cytotoxic at higher concentrations over a very narrow range	
CO[C@H]1/C=C/CC/C=C/C(=O)O[C@H]([C@H](C)C(=O)CCCC2CC(=O)NC(=O)C2)/C(C)=C\[C@@H](C)[C@@H]1O [migrastatin]											29
